Laboratory results reported in US5189016A, “Nutrient compositions containing peptides and method for administering the same” (Clintec Nutrition Co., priority 1990, dated 1993).
Like-named read-outs stand apart in the source and are kept apart here. Peptide text beside a SMILES is read from it.

Tests used:
[1] = cited from earlier work
[2] = parameters: species or system piglets; conditions: in vivo
Excerpt: In this experiment slightly preterm, colostrum-deprived piglets were maintained on total parenteral nutrition from birth to day 7 of life. All piglets in this study have been enrolled and completed the study period in the University of Florida Piglet Neonatal Intensive Care Unit. Ten piglets in the control group received standard neonatal piglet total parenteral nutrition solution containing amino acids, glucose, lipid, vitamins and minerals. Eleven piglets in the experimental group received the same total […] nutrition formulation with the exception that 20% of the amino acids in the standard solution was replaced with glutamine. […] Nine piglets in each group completed the full 7 days of the study. One piglet in the control group and two piglets in the experimental group became septic. […] To date, the amino acid analyses have been completed on blood samples from six of the piglets in the experimental group and on blood samples from seven of the piglets in the control group.

## N[C@@H](Cc1c[nH]c2ccccc12)C(=O)O [tryptophan]
[1]; 25° C.
  Solubility in water: 11.4 grams/100 mL

## NCC(=O)N[C@@H](CCC(N)=O)C(=O)O [glycylglutamine dipeptide, glycyl-glutamine] (H-Gly-Gln-OH)
[2]
  Adverse effect in septic piglets: signs of severe convulsions
  Plasma glutamine concentration, mean: 544 nmol/mL
  Plasma glutamine concentrations compared to control group: increases the plasma glutamine concentrations

## NC(=O)CC[C@H](N)C(=O)O [Glutamine, glutamine]
[1]; 30° C.
  Solubility in water: 4.8 grams/100 mL

## NC(=O)C[C@H](N)C(=O)O [asparagine]
[1]; 28° C.
  Solubility in water: 3.5 grams/100 mL
